Assay: mn = molality of the nth substance listed, in mol/kg
Details: 101 kPa, Liquid; for mass density: Vibrating tube method; for speed of sound: Pulse-echo method

O=S(=O)([O-])C(F)(F)F.[Na+] [sodium trifluoromethanesulfonate] + CO
Details	mass density, 283.15 K [kg/m3]	mass density, 288.15 K [kg/m3]	mass density, 293.15 K [kg/m3]	mass density, 298.15 K [kg/m3]	mass density, 303.15 K [kg/m3]	mass density, 308.15 K [kg/m3]	mass density, 313.15 K [kg/m3]	speed of sound, 298.15 K [m/s]
m1 = 0.04581	805.004	800.315	795.62	790.91	786.191	781.448	776.675	1102.3
m1 = 0.05858	806.247	801.557	796.863	792.154	787.428	782.688	777.918	1102.5
m1 = 0.07409	807.746	803.057	798.363	793.657	788.931	784.175	779.409	1103
m1 = 0.08825	809.117	804.427	799.733	795.022	790.305	785.561	780.79	1103.2
m1 = 0.1028	810.527	805.836	801.14	796.431	791.701	786.964	782.194	1103.4
m1 = 0.1172	811.93	807.238	802.543	797.833	793.105	788.352	783.59	1103.6
m1 = 0.1463	814.771	810.077	805.377	800.668	795.947	791.201	786.428	1104
m1 = 0.1743	817.509	812.812	808.112	803.401	798.671	793.913	789.143	1104.6
m1 = 0.2027	820.305	815.606	810.904	806.19	801.46	796.713	791.938	1105
m1 = 0.2301	823.038	818.338	813.634	808.917	804.185	799.436	794.66	1105.2
m1 = 0.2574	825.732	821.028	816.321	811.601	806.867	802.106	797.321	1105.4
m1 = 0.2861	828.58	823.872	819.161	814.439	809.7	804.938	800.15	1105.6

O=S(=O)([O-])C(F)(F)F.[Na+] [sodium trifluoromethanesulfonate] + C[S+](C)[O-]
Details	mass density, 293.15 K [kg/m3]	mass density, 298.15 K [kg/m3]	mass density, 303.15 K [kg/m3]	mass density, 313.15 K [kg/m3]	mass density, 323.15 K [kg/m3]	mass density, 333.15 K [kg/m3]	speed of sound, 298.15 K [m/s]
m1 = 0.02641	1102.59	1097.57	1092.55	1082.51	1072.47	1062.44	–
m1 = 0.0331	1103.2	1098.17	1093.52	1083.11	1073.08	1063.05	–
m1 = 0.04651	1104.41	1099.38	1094.37	1084.33	1074.31	1064.27	1482.7
m1 = 0.06041	1105.66	1100.64	1095.62	1085.59	1075.56	1065.53	1482.2
m1 = 0.0788	1107.34	1102.31	1097.29	1087.27	1077.24	1067.21	1481.6
m1 = 0.09603	1108.91	1103.88	1098.86	1088.84	1078.81	1068.79	1481
m1 = 0.1218	1111.26	1106.23	1101.22	1091.19	1081.17	1071.16	1480.1
m1 = 0.1568	1114.49	1109.45	1104.45	1094.42	1084.4	1074.39	1479
m1 = 0.1917	1117.71	1112.68	1107.66	1097.64	1087.62	1077.62	1477.6
m1 = 0.2205	1120.39	1115.36	1110.33	1100.32	1090.31	1080.3	1476.5
m1 = 0.2625	1124.33	1119.3	1114.27	1104.24	1094.22	1084.21	1475
m1 = 0.2925	–	–	–	–	–	–	1473.9

Reference: the NIST ThermoML archive (doi:10.1016/j.jct.2010.04.013)
